The data set concerns Arion lusitanicus. Put plainly: Slug Mucosal Irritation (SMI) assay. The class given is in vivo.

Experimental: The SMI assay uses slugs (Arion lusitanicus) as the test organism. The body wall of slugs consists of a mucosal surface comprising mucus secreting cells covering a sub epithelial connective tissue. Slugs that are placed on an irritant substance will actively produce mucus as a protective mechanism from noxious agents. Additionally, tissue damage of the slug's surface results in the release of proteins and enzymes. The protein concentration in the collected samples is determined with a protein quantitation kit.
The Slug Mucosal Irritation (SMI) assay was developed to predict the mucosal irritation potency of pharmaceutical formulations and ingredients. Briefly, the assay utilized the terrestrial slug Arion lusitanicus, whose body wall is a mucosal surface composed of different layers. The outer single-layered columnar epithelium contains cells with cilia, cells with microvilli, and mucus-secreting cells that cover the subepithelial connective tissue. […]
The method for testing the irritation potency of the formulations was evaluated by placing the slugs on 100 mg of the sample for 30 minutes daily for 3 successive days, and the amount of mucus produced was measured. […] The total mucus production (MP) percentage was calculated as a percent of the slug's body weight.

For the substance Nonoxynol-9, the “Total MP (%)” value (100 mg, 30 minutes daily, 3 successive days, percent of slug body weight) was 8.2 ± 1.2%. For the same substance, for the setting “mucosal irritation potency class”, the MIP result is listed as “high”.

Values taken from patent publication US12083304B2, “Kits for topical, isotonic compositions” (GLYCIOME, LLC, priority 2019, dated 2024).
